Assay results: ChEMBL document CHEMBL3046096, “CoMFA AND CoMSIA STUDIES ON A SET OF BENZYL PIPERAZINES, PIPERADINES, PYRAZINOPYRIDOINDOLES, PYRAZINOISOQUINOLINES AND SEMI RIGID ANALOGS OF DIPHENHYDRAMINE” (Med Chem Res, 2004)

molecular target: Histamine H1 receptor (Cavia porcellus) (UniProt P31389); experiment: Antagonist activity at histamine H1 receptor in Cavia porcellus (guinea pig) ileum; format: tissue-based
Sequence (P31389 whole entry): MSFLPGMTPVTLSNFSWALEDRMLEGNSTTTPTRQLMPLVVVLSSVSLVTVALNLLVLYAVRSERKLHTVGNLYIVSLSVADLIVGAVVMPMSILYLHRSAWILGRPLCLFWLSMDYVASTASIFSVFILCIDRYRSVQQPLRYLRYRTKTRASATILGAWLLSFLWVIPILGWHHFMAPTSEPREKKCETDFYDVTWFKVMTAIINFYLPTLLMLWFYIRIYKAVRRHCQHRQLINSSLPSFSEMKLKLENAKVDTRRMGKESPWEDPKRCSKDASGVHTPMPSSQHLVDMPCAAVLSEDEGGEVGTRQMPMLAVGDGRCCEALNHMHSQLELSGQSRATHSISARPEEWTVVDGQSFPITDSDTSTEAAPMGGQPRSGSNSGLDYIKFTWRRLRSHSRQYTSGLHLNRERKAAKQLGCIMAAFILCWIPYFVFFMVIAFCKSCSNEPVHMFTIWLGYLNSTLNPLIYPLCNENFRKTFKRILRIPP

| Activity [µM/L] | Compound |
| --- | --- |
| 1.51 | O=C(CCN1CCC(Cc2ccccc2)CC1)Nc1ccccc1 |
| 1.32 | O=C(CCN1CCN(Cc2ccccc2)CC1)Nc1ccccc1F |
| 1.55 | O=C(NCCN1CCC(Cc2ccccc2)CC1)c1ccccc1 |
| 0.283 | Cc1ccccc1C(=O)NCCN1CCN2Cc3[nH]c4ccccc4c3CC2C1 (centres undefined) |
| 0.525 | CCc1ccccc1NC(=O)CCN1CCN2Cc3ccccc3CC2C1 (centres undefined) |
| 0.661 | O=C(NCCN1CCC(Cc2ccccc2)CC1)c1ccccc1Br |
| 0.832 | O=C(CCN1CCC(Cc2ccccc2)CC1)Nc1ccccc1F |
| 0.345 | O=C(NCCN1CCN(Cc2ccccc2)CC1)c1ccccc1I |
| 0.375 | O=C(NCCN1CCN2Cc3[nH]c4ccccc4c3CC2C1)c1ccccc1[N+](=O)[O-] (centres undefined) |
| 0.963 | COc1ccccc1NC(=O)CCN1CCC(Cc2ccccc2)CC1 |
| 0.836 | O=C(CCN1CCN(Cc2ccccc2)CC1)Nc1ccccc1Cl |
| 0.477 | CCc1ccccc1NC(=O)CCN1CCC(Cc2ccccc2)CC1 |
| 0.206 | O=C(NCCN1CCN2Cc3[nH]c4ccccc4c3CC2C1)c1ccccc1Cl (centres undefined) |
| 0.778 | CCc1ccccc1NC(=O)CCN1CCN(Cc2ccccc2)CC1 |
| 0.799 | O=C(NCCN1CCC(Cc2ccccc2)CC1)c1ccccc1Cl |
| 0.535 | O=C(NCCN1CCN2Cc3[nH]c4ccccc4c3CC2C1)c1ccccc1 (centres undefined) |
| 7.12 | Cc1ccccc1C(=O)NCCN1CCN(Cc2ccccc2)CC1 |
| 1.34 | O=C(CCN1CCN2Cc3ccccc3CC2C1)Nc1ccccc1 (centres undefined) |
| 1.32 | O=C(NCCN1CCN(Cc2ccccc2)CC1)c1ccccc1[N+](=O)[O-] |
| 1.07 | Cc1ccccc1C(=O)NCCN1CCC(Cc2ccccc2)CC1 |
| 0.561 | O=C(CCN1CCC(Cc2ccccc2)CC1)Nc1ccccc1Cl |
| 0.364 | COc1ccccc1C(=O)NCCN1CCN2Cc3[nH]c4ccccc4c3CC2C1 (centres undefined) |
| 0.925 | Nc1ccccc1C(=O)NCCN1CCN2Cc3[nH]c4ccccc4c3CC2C1 (centres undefined) |

Further lines, the compound ahead of its results:

| Compound | Activity [µM/L] |
| --- | --- |
| O=C(CCN1CCN(Cc2ccccc2)CC1)Nc1ccccc1[N+](=O)[O-] | 1.7 |
| O=C(CCN1CCN2Cc3[nH]c4ccccc4c3CC2C1)Nc1ccccc1Cl (centres undefined) | 0.979 |
| O=C(NCCN1CCN(Cc2ccccc2)CC1)c1ccccc1Br | 0.421 |
| O=C(NCCN1CCN(Cc2ccccc2)CC1)c1ccccc1 | 6.94 |
| CN(C)CCOC1c2ccccc2-c2ccccc21 | 0.039 |
| O=C(CCN1CCN2Cc3[nH]c4ccccc4c3CC2C1)Nc1ccccc1 (centres undefined) | 1.6 |
| O=C(CCN1CCN(Cc2ccccc2)CC1)Nc1ccccc1 | 2.17 |
| O=C(CCN1CCN2Cc3ccccc3CC2C1)Nc1ccccc1[N+](=O)[O-] (centres undefined) | 1.32 |
| O=C(CCN1CCN2Cc3ccccc3CC2C1)Nc1ccccc1Cl (centres undefined) | 0.677 |
| CCc1ccccc1NC(=O)CCN1CCN2Cc3[nH]c4ccccc4c3CC2C1 (centres undefined) | 0.634 |
| CN(C)C[C@@H]1O[C@H](c2ccccc2)c2ccccc21 (relative stereo) | 0.0039 |
| O=C(NCCN1CCN(Cc2ccccc2)CC1)c1ccccc1Cl | 0.696 |
| O=C(CCN1CCN2Cc3[nH]c4ccccc4c3CC2C1)Nc1ccccc1F (centres undefined) | 1.28 |
| CN(C)[C@@H]1CO[C@@H](c2ccccc2)c2ccccc21 (relative stereo) | 0.51 |
| O=C(CCN1CCN2Cc3[nH]c4ccccc4c3CC2C1)Nc1ccccc1[N+](=O)[O-] (centres undefined) | 1.74 |
| CN(C)C[C@@H]1O[C@@H](c2ccccc2)c2ccccc21 (relative stereo) | 0.0039 |
